Test system: Alternaria solani
Assay: Microtest: activity against early blight caused by Alternaria solani (micro titer plate, absorption at 405 nm)
Assay type: cell-based
Conditions: single compound, 7 days after inoculation, 0 = growth as untreated control, 100 = no growth
Method: The stock solutions were mixed according to the ratio, pipetted onto a micro titer plate (MTP) and diluted with water to the stated concentrations. A spore suspension of Alternaria solani in an aqueous biomalt or yeast-bactopeptone-glycerine or DOB solution was then added. The plates were placed in a water vapor-saturated chamber at a temperature of 18° C. Using an ab-sorption photometer, the MTPs were measured at 405 nm 7 days after the inoculation. The measured parameters were compared to the growth of the active compound-free control variant (100%) and the fungus-free and active compound-free blank value to determine the relative growth in % of the pathogens in the respective active compounds. These percentages were converted into efficacies. […] The expected efficacies of active compound mixtures were determined using Colby's formula [R. S. Colby, “Calculating synergistic and antagonistic responses of herbicide combinations”, Weeds 15, 20-22 (1967)] and compared with the observed efficacies.

Compound: Cc1cccc(-n2nnn(C)c2=O)c1COc1ccn(-c2ccc(Cl)cc2)n1 [Compound II, 1-[2-[[1-(4-chlorophenyl)pyrazol-3-yl]oxymethyl]-3-methyl-phenyl]-4-methyl-tetrazol-5-one, reference compound]
- Observed efficacy (0.016 ppm): 11

Compound: N#Cc1ccc(Oc2ccc(C(F)(F)C(O)(Cn3ncnc3S)c3ccc(F)cc3F)nc2)cc1 (stereo not shown) [Compound I, 4-[[6-[2-(2,4-difluorophenyl)-1,1-difluoro-2-hydroxy-3-(5-sulfanyl-1,2,4-triazol-1-yl)propyl]-3-pyridyl]oxy]benzonitrile]
- Observed efficacy (0.25 ppm): 7
- Observed efficacy (1 ppm): 8
- Observed efficacy (4 ppm): 30

Source: patent publication US11998010B2, “Pesticidal mixtures” (BASF SE, priority 2018, dated 2024)
